According to patent publication US9856252B2, “2-(hetero)aryl-benzimidazole and imidazopyridine derivatives as inhibitors of asparagime emethyl transferase” (Cancer Therapeutics CRC Pty Ltd, priority 2013, dated 2018):

Assays:
[1] = tested on: histone H4 Arginine 3 dimethylation mark in TE11 cells; experiment: PRMT5 Biomarker Assay; format: cell-based; conditions: Homo sapiens, TE-11; TE11 cell line, 72 hours incubation, Di-Methyl Histone H4R3 ELISA corrected for total protein
Description: Compounds of the invention may be tested for potency to inhibit the histone H4 Arginine 3 dimethylation mark in the following assay:
The cell line TE11 was seeded at a density of 12,000 cells per well in 96 well tissue culture plates in DME medium and 10% foetal bovine serum, and allowed to adhere overnight under standard culture conditions (37° C., 5% CO2). […] The methylation level was determined using the EpiQuik™ Global Di-Methyl Histone H4R3 Quantification ELISA Kit (Epigentek, Farmingdale, N.Y.) as per the manufacturer's recommendations; in parallel the total protein amount in the lysate was quantified using a Lowry protein assay.

[2] = biological target: Full-length PRMT5 enzyme (NCBI Reference sequence NP_006100.2) co-expressed with His6-MEP50 (Homo sapiens (Human), UniProt O14744); experiment: PRMT5 Biochemical Assay; conditions: histone H4 derived peptide substrate 200 nM, 1 μM S-Adenosyl methionine, 4 hours at 37° C., Transcreener EPIGEN fluorescence polarisation
Description: Compounds of the invention may be tested for in vitro activity in the following assay: A histone H4 derived peptide is used as substrate (amino acid sequence: […]N H2). Full-length PRMT5 enzyme (NCBI Reference sequence NP_006100.2) was co-expressed with His6-MEP50 in insect cells and purified via Nickel immobilized metal affinity and gel filtration chromatography (“the enzyme”).
The 6 μL assay reactions are run in Greiner brand black 384-well low volume plates. All reactions contained assay buffer (phosphate buffered saline, 0.01% (v/v) Tween-20, 0.01% (w/v) albumin from chicken egg white, 1 mM dithiothreitol, 200 nM peptide substrate, 1 μM S-Adenosyl methionine, and 15 ng/reaction enzyme, with the enzyme being omitted from negative control reactions. Compounds were added in a volume of 100 nL from dilution series prepared in DMSO, positive and negative control reactions receiving the same volume DMSO without compound. The plates were sealed with adhesive seals and incubated for 4 hours at 37° C. Reaction progress was measured using the Transcreener™ EPIGEN methyltransferase assay (BellBrook Labs, Madison, Wis.) as recommended by the manufacturer. To each reaction 2 μL detection mix were added, containing coupling enzymes, fluorescence polarisation tracer, and AMP antibody. Plates were incubated for 90 minutes before being read on a PerkinElmer EnVision™ plate reader in fluorescence polarisation mode.

Sequence of Full-length PRMT5 enzyme (NCBI Reference sequence NP_006100.2) co-expressed with His6-MEP50 (O14744 whole entry): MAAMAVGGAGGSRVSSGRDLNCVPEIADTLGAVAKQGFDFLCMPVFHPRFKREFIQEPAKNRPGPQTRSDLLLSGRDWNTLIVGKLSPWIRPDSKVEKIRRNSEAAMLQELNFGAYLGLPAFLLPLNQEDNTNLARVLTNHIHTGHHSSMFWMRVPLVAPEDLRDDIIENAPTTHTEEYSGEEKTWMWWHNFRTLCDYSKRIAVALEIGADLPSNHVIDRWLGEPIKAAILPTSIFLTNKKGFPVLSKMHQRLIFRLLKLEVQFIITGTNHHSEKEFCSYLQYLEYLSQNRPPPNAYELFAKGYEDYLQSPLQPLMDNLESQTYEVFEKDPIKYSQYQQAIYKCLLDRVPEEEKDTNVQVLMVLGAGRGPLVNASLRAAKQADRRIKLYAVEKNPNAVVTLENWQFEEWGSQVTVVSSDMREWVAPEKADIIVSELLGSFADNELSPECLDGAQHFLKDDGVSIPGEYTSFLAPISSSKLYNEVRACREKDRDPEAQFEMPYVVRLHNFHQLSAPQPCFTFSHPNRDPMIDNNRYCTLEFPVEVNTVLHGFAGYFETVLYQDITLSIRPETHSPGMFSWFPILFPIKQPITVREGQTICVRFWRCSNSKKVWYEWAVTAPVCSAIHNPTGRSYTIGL
Sequence of Full-length PRMT5 enzyme (NCBI Reference sequence NP_006100.2) co-expressed with His6-MEP50 (Q9BQA1 whole entry partner): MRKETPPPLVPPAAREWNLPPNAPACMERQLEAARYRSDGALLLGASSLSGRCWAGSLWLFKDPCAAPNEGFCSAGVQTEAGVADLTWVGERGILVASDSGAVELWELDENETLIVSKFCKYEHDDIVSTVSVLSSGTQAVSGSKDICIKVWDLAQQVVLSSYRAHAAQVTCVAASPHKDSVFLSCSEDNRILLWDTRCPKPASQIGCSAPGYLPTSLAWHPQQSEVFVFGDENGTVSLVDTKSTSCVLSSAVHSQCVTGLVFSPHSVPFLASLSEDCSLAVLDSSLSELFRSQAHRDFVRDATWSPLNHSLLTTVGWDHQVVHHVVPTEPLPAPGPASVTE

SMILES | IC50 [1] | IC50 [2]
Clc1ccnc2[nH]c(-c3ccc(OCc4ccccc4)cc3)nc12 [Example 4, 2-(4-(benzyloxy)phenyl)-7-chloro-3H-imidazo[4,5-b]pyridine] | 127 nM | 
c1ccc(OCc2ccc(-c3nc4cc(C5CCNCC5)cnc4[nH]3)cc2)cc1 [Example 9, 2-(4-(phenoxymethyl)phenyl)-6-(piperidin-4-yl)-3H-imidazo[4,5-b]pyridine] | 645 nM | 
C1=C(c2ccc3nc(-c4ccc(OCc5ccccc5)cc4)[nH]c3n2)CCNC1 [Example 45, 2-(4-(benzyloxy)phenyl)-5-(1,2,3,6-tetrahydropyridin-4-yl)-3H-imidazo[4,5-b]pyridine] | 1210 nM | 
CS(=O)(=O)N1CCC(c2cnc3[nH]c(-c4ccc(OCc5ccccc5)cc4)nc3c2)CC1 [Example 83, 2-(4-(benzyloxy)phenyl)-6-(1-(methylsulfonyl)piperidin-4-yl)-3H-imidazo[4,5-b]pyridine] |  | 1110 nM
CS(=O)(=O)N1CCC(c2ccc3nc(-c4ccc(OCc5ccccc5)cc4)[nH]c3n2)CC1 [Example 87, 2-(4-(benzyloxy)phenyl)-5-(1-(methylsulfonyl)piperidin-4-yl)-3H-imidazo[4,5-b]pyridine] |  | 355 nM
CCOC(=O)N1CCC(c2ccc3nc(-c4ccc(OCc5ccccc5)cc4)[nH]c3n2)CC1 [Example 88, ethyl 4-(2-(4-(benzyloxy)phenyl)-3H-imidazo[4,5-b]pyridin-5-yl)piperidine-1-carboxylate] |  | 477 nM
O=S(=O)(C1CC1)N1CCC(c2ccc3nc(-c4ccc(OCc5ccccc5)cc4)[nH]c3n2)CC1 [Example 89, 2-(4-(benzyloxy)phenyl)-5-(1-(cyclopropylsulfonyl)piperidin-4-yl)-3H-imidazo[4,5-b]pyridine] |  | 1340 nM
CS(=O)(=O)N1CCN(c2ccc3nc(-c4ccc(OCc5ccccc5)cc4)[nH]c3n2)CC1 [Example 91, 2-(4-(benzyloxy)phenyl)-5-(4-(methylsulfonyl)piperazin-1-yl)-3H-imidazo[4,5-b]pyridine] |  | 820 nM
CNC(=O)Cc1ccnc2[nH]c(-c3ccc(OCc4ccccc4)cc3)nc12 [Example 93, 2-(2-(4-(benzyloxy)phenyl)-3H-imidazo[4,5-b]pyridin-7-yl)-N-methylacetamide] |  | 2140 nM
CN(C)C(=O)Cc1ccnc2[nH]c(-c3ccc(OCc4ccccc4)cc3)nc12 [Example 94, 2-(2-(4-(benzyloxy)phenyl)-3H-imidazo[4,5-b]pyridin-7-yl)-N,N-dimethylacetamide] |  | 1020 nM
c1ccc(CSc2ccc(-c3nc4ccc(N5CCNCC5)nc4[nH]3)cc2)cc1 [Example 96, 2-(4-(benzylthio)phenyl)-5-(piperazin-1-yl)-3H-imidazo[4,5-b]pyridine] |  | 585 nM
c1ccc(COc2ccc(-c3nc4ccc(C5CC5)nc4[nH]3)cc2)cc1 [Example 105] |  | 1500 nM
c1ccc(COc2ccc(-c3nc4ccc(-c5cncnc5)nc4[nH]3)cc2)cc1 [Example 106] |  | 9000 nM
Cn1cc(-c2ccc3nc(-c4ccc(OCc5ccccc5)cc4)[nH]c3n2)cn1 [Example 107] |  | 1670 nM

Second part, the compound after the results:

IC50 [1] | IC50 [2] | SMILES
1830 nM | 107 nM | c1ccc(OCc2ccc(-c3nc4cc(C5CCCNC5)cnc4[nH]3)cc2)cc1 (stereo not shown) [Example 16, 2-(4-(phenoxymethyl)phenyl)-6-(piperidin-3-yl)-3H-imidazo[4,5-b]pyridine]
731 nM | 223 nM | c1ccc(COc2ccc(-c3nc4ccc(C5CCNCC5)nc4[nH]3)cc2)cc1 [Example 40, 2-(4-(benzyloxy)phenyl)-5-(piperidin-4-yl)-3H-imidazo[4,5-b]pyridine]
 | 151 nM | c1ccc(OCc2ccc(-c3nc4ccc(C5CCNCC5)nc4[nH]3)cc2)cc1 [Example 85, 2-(4-(phenoxymethyl)phenyl)-5-(piperidin-4-yl)-3H-imidazo[4,5-b]pyridine]
 | 151 nM | CN1CCC(c2ccc3nc(-c4ccc(COc5ccccc5)cc4)[nH]c3n2)CC1 [Example 86, 5-(1-methylpiperidin-4-yl)-2-(4-(phenoxymethyl)phenyl)-3H-imidazo[4,5-b]pyridine]
 | 148 nM | CCS(=O)(=O)N1CCC(c2ccc3nc(-c4ccc(OCc5ccccc5)cc4)[nH]c3n2)CC1 [Example 90, 2-(4-(benzyloxy)phenyl)-5-(1-(ethylsulfonyl)piperidin-4-yl)-3H-imidazo[4,5-b]pyridine]
 | 279 nM | O=S(=O)(C1CC1)N1CCN(c2ccc3nc(-c4ccc(OCc5ccccc5)cc4)[nH]c3n2)CC1 [Example 92, 2-(4-(benzyloxy)phenyl)-5-(4-(cyclopropylsulfonyl)piperazin-1-yl)-3H-imidazo[4,5-b]pyridine]
 | 217 nM | CCS(=O)(=O)N1CC=C(c2ccc3nc(-c4ccc(OCc5ccccc5)cc4)[nH]c3n2)CC1 [Example 97, 2-(4-(benzyloxy)phenyl)-5-(1-(ethylsulfonyl)-1,2,3,6-tetrahydropyridin-4-yl)-3H-imidazo[4,5-b]pyridine]
 | 166 nM | CC(=O)N1CC=C(c2ccc3nc(-c4ccc(OCc5ccccc5)cc4)[nH]c3n2)CC1 [Example 98, 1-(4-(2-(4-(benzyloxy)phenyl)-3H-imidazo[4,5-b]pyridin-5-yl)-3,6-dihydropyridin-1 (2H)-yl)ethan-1-one]
 | 148 nM | CN1CCCC(c2ccc3nc(-c4ccc(COc5ccccc5)cc4)[nH]c3n2)C1 (stereo not shown) [Example 99, 5-(1-methylpiperidin-3-yl)-2-(4-(phenoxymethyl)phenyl)-3H-imidazo[4,5-b]pyridine]
